# Source: patent US10294202B2, “Pyrrolidinones as herbicides” (FMC Corporation, priority 2013, dated 2019)
# Experiments:
# [1] = system: barnyardgrass; test: Test A pre-/postemergence herbicide test; assay type: in vivo, Echinochloa crus-galli
# Outline: (§1)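 Scoring was visual, relative to untreated controls, on a 0–100 scale after about 10 greenhouse days. Preemergence treatment used a directed soil spray over seeded loam/sand; postemergence treatment targeted one- to two-leaf plants of 2–10 cm.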
# [2] = system: kochia; test: Test A pre-/postemergence herbicide test; assay type: in vivo, Kochia scoparia
# From the text: (§2) Seeds of plant species selected from bamyardgrass (Echinochloa crus-galli), kochia (Kochia scoparia), ragweed (common ragweed, Ambrosia elatior), ryegrass, Italian (Italian ryegrass, Lolium multiflorum), crabgrass, large (large crabgrass Digitaria sanguinalis), giant foxtail (Setaria faberii), morningglory (Ipomoea spp.), pigweed (Amaranthus retroflexus), velvetleaf (Abutilon theophrasti), wheat (Triticum aestivum), and corn (Zea mays) were planted into a blend of loam soil and sand and treated preemergence with a directed soil spray using test chemicals formulated in a non-phytotoxic solvent mixture which included a surfactant. At the same time, plants selected from these crop and weed species and also blackgrass (Alopecurus myosuroides), and galium (catchweed bedstraw, Galium aparine) were planted in pots containing the same blend of loam soil and sand and treated with postemergence applications of test chemicals formulated in the same manner. Plants ranged in height from 2 to 10 cm and were in the one- to two-leaf stage for the postemergence treatment. Treated plants and untreated controls were maintained in a greenhouse for approximately 10 days, after which time all treated plants were compared to untreated controls and visually evaluated for injury. Plant response ratings, summarized in Table A, are based on a 0 to 100 scale where 0 is no effect and 100 is complete control. A dash (-) response means no test result.
# [3] = system: ragweed; test: Test A pre-/postemergence herbicide test; assay type: in vivo, Ambrosia elatior
# From the text: as §2
# [4] = system: ryegrass, Italian; test: Test A pre-/postemergence herbicide test; assay type: in vivo, Lolium multiflorum
# From the text: as §2
# [5] = system: giant foxtail; test: Test A pre-/postemergence herbicide test; assay type: in vivo, Setaria faberii
# Outline: as §1
# [6] = system: pigweed; test: Test A pre-/postemergence herbicide test; assay type: in vivo, Amaranthus retroflexus
# From the text: as §2
# [7] = system: wheat; test: Test A pre-/postemergence herbicide test; assay type: in vivo, Triticum aestivum; settings: Postemergence; for Plant response rating, Wheat: 125 g ai/ha; for Wheat plant response rating (0 to 100 scale, 0 is no effect, 100 is complete control): 500 g ai/ha
# Outline: as §1
# [8] = system: corn; test: Test A pre-/postemergence herbicide test; assay type: in vivo, Zea mays; settings: Postemergence
# Outline: as §1
# [9] = system: blackgrass; test: Test A postemergence herbicide test; assay type: in vivo, Alopecurus myosuroides
# From the text: (§3) At the same time, plants selected from these crop and weed species and also blackgrass (Alopecurus myosuroides), and galium (catchweed bedstraw, Galium aparine) were planted in pots containing the same blend of loam soil and sand and treated with postemergence applications of test chemicals formulated in the same manner. Plants ranged in height from 2 to 10 cm and were in the one- to two-leaf stage for the postemergence treatment. Treated plants and untreated controls were maintained in a greenhouse for approximately 10 days, after which time all treated plants were compared to untreated controls and visually evaluated for injury. Plant response ratings, summarized in Table A, are based on a 0 to 100 scale where 0 is no effect and 100 is complete control. A dash (-) response means no test result.
# [10] = system: galium; test: Test A postemergence herbicide test; assay type: in vivo, Galium aparine; settings: for Plant response rating, Galium: 125 g ai/ha; for Galium plant response rating (0 to 100 scale, 0 is no effect, 100 is complete control): 500 g ai/ha
# From the text: as §3
# [11] = 125 g ai/ha, visual rating, 0 to 100 scale, 0 no effect, 100 complete control, approximately 10 days, preemergence
# [12] = Postemergence, 125 g ai/ha, 0 to 100 scale, 0 is no effect, 100 is complete control
# [13] = preemergence, 500 g ai/ha, 0 to 100 scale, 0 is no effect and 100 is complete control
# [14] = 0 to 100 scale, 0 is no effect, 100 is complete control
# [15] = 125 g ai/ha, 0 to 100 scale, 0 is no effect, 100 is complete control
# [16] = Postemergence, 125 g ai/ha, visual rating on 0 to 100 scale (0 no effect, 100 complete control), approx. 10 days
# [17] = Postemergence, 500 g ai/ha, 0 to 100 scale (0 no effect, 100 complete control)
# [18] = Preemergence, 125 g ai/ha, 0 to 100 scale where 0 is no effect and 100 is complete control
# [19] = Preemergence, 500 g ai/ha, visual rating on 0 to 100 scale (0 no effect, 100 complete control)
# [20] = visual rating on 0 to 100 scale (0 no effect, 100 complete control), approx. 10 days
# [21] = 125 g ai/ha, visual rating on 0 to 100 scale (0 no effect, 100 complete control), approx. 10 days
# [22] = 500 g ai/ha, 0 to 100 scale (0 no effect, 100 complete control)
compound,measurement,setting,value
O=C1NCC(c2ccc(OC(F)(F)C(F)F)cc2)C1C(=O)Nc1ccc(F)c(F)c1F (racemic) [Compound 174],"Plant response rating, Barnyardgrass",[1]; [11],0
same,"Plant response rating, Barnyardgrass",[1]; [12],0
same,"Barnyardgrass plant response rating (0 to 100 scale, 0 is no effect, 100 is complete control)","[1]; Postemergence, 500 g ai/ha",20
same,"Plant response rating, Barnyardgrass",[1]; [13],20
same,"Plant response rating, Kochia",[2]; [11],0
same,"Plant response rating, Kochia",[2]; [12],0
same,"Kochia plant response rating (0 to 100 scale, 0 is no effect, 100 is complete control)","[2]; Postemergence, 500 g ai/ha",0
same,"Plant response rating, Kochia",[2]; [13],20
same,"Plant response rating, Ragweed",[3]; [11],0
same,"Plant response rating, Ragweed",[3]; [12],0
same,"Ragweed plant response rating (0 to 100 scale, 0 is no effect, 100 is complete control)","[3]; Postemergence, 500 g ai/ha",0
same,"Plant response rating, Ragweed",[3]; [13],0
same,"Plant response rating, Ryegrass, Italian",[4]; [11],0
same,"Plant response rating, Ryegrass, Italian",[4]; [12],0
same,"Ryegrass, Italian plant response rating (0 to 100 scale, 0 is no effect, 100 is complete control)","[4]; Postemergence, 500 g ai/ha",0
same,"Plant response rating, Ryegrass, Italian",[4]; [13],0
same,"Plant response rating, Foxtail, Giant",[5]; [11],30
same,"Plant response rating, Foxtail, Giant",[5]; [12],20
same,"Foxtail, Giant plant response rating (0 to 100 scale, 0 is no effect, 100 is complete control)","[5]; Postemergence, 500 g ai/ha",30
same,"Plant response rating, Foxtail, Giant",[5]; [13],50
same,"Plant response rating, Pigweed",[6]; [11],0
same,"Plant response rating, Pigweed",[6]; [12],0
same,"Pigweed plant response rating (0 to 100 scale, 0 is no effect, 100 is complete control)","[6]; Postemergence, 500 g ai/ha",0
same,"Plant response rating, Pigweed",[6]; [13],0
same,"Plant response rating, Wheat",[7]; [14],0
same,"Wheat plant response rating (0 to 100 scale, 0 is no effect, 100 is complete control)",[7],0
same,"Plant response rating, Corn",[8]; [15],0
same,"Corn plant response rating (0 to 100 scale, 0 is no effect, 100 is complete control)",[8]; 500 g ai/ha,0
same,"Plant response rating, Blackgrass",[9]; [15],0
same,"Blackgrass plant response rating (0 to 100 scale, 0 is no effect, 100 is complete control)",[9]; 500 g ai/ha,0
same,"Plant response rating, Galium",[10]; [14],0
same,"Galium plant response rating (0 to 100 scale, 0 is no effect, 100 is complete control)",[10],0
O=C1NCC(c2cc(F)cc(F)c2)C1C(=O)Nc1cccc(F)c1F (racemic) [Compound 157],"Plant response rating, Barnyardgrass",[1]; [11],90
same,"Plant response rating, Barnyardgrass",[1]; [12],70
same,"Barnyardgrass plant response rating (0 to 100 scale, 0 is no effect, 100 is complete control)","[1]; Postemergence, 500 g ai/ha",80
same,"Plant response rating, Barnyardgrass","[1]; preemergence, 500 g ai/ha, 0 to 100 scale (0 no effect, 100 complete control)",90
same,"Plant response rating, Kochia",[2]; [11],50
same,"Plant response rating, Kochia",[2]; [12],20
same,"Kochia plant response rating (0 to 100 scale, 0 is no effect, 100 is complete control)","[2]; Postemergence, 500 g ai/ha",30
same,"Plant response rating, Kochia",[2]; [13],70
same,"Plant response rating, Ragweed",[3]; [11],30
same,"Plant response rating, Ragweed",[3]; [12],20
same,"Ragweed plant response rating (0 to 100 scale, 0 is no effect, 100 is complete control)","[3]; Postemergence, 500 g ai/ha",40
same,"Plant response rating, Ragweed",[3]; [13],50
same,"Plant response rating, Ryegrass, Italian",[4]; [11],30
same,"Plant response rating, Ryegrass, Italian",[4]; [12],30
same,"Ryegrass, Italian plant response rating (0 to 100 scale, 0 is no effect, 100 is complete control)","[4]; Postemergence, 500 g ai/ha",30
same,"Plant response rating, Ryegrass, Italian",[4]; [13],60
same,"Plant response rating, Foxtail, Giant",[5]; [11],90
same,"Plant response rating, Foxtail, Giant",[5]; [12],80
same,"Foxtail, Giant plant response rating (0 to 100 scale, 0 is no effect, 100 is complete control)","[5]; Postemergence, 500 g ai/ha",80
same,"Plant response rating, Foxtail, Giant","[5]; preemergence, 500 g ai/ha, 0 to 100 scale",90
same,"Plant response rating, Pigweed",[6]; [11],0
same,"Plant response rating, Pigweed",[6]; [12],0
same,"Pigweed plant response rating (0 to 100 scale, 0 is no effect, 100 is complete control)","[6]; Postemergence, 500 g ai/ha",30
same,"Plant response rating, Pigweed",[6]; [13],50
same,"Plant response rating, Wheat",[7]; [14],40
same,"Wheat plant response rating (0 to 100 scale, 0 is no effect, 100 is complete control)",[7],70
same,"Plant response rating, Corn",[8]; [15],50
same,"Corn plant response rating (0 to 100 scale, 0 is no effect, 100 is complete control)",[8]; 500 g ai/ha,80
same,"Plant response rating, Blackgrass",[9]; [15],30
same,"Blackgrass plant response rating (0 to 100 scale, 0 is no effect, 100 is complete control)",[9]; 500 g ai/ha,30
same,"Plant response rating, Galium",[10]; [14],40
same,"Galium plant response rating (0 to 100 scale, 0 is no effect, 100 is complete control)",[10],40
CC(C)(C)c1cccc(C2CNC(=O)C2C(=O)Nc2ccccc2F)c1 (stereo not drawn) [Compound 347],"Plant response rating, Barnyardgrass",[1]; [16],50
same,"Plant response rating, Barnyardgrass",[1]; [17],50
same,"Plant response rating, Barnyardgrass",[1]; [18],50
same,Barnyardgrass plant response rating,[1]; [19],90
same,"Plant response rating, Kochia",[2]; [16],0
same,"Plant response rating, Kochia",[2]; [18],0
same,Kochia plant response rating,[2]; [19],0
same,"Plant response rating, Ragweed",[3]; [16],0
same,"Plant response rating, Ragweed",[3]; [18],0
same,Ragweed plant response rating,[3]; [19],0
same,"Plant response rating, Ryegrass, Italian",[4]; [16],0
same,"Plant response rating, Ryegrass, Italian",[4]; [18],0
same,"Ryegrass, Italian plant response rating",[4]; [19],0
same,"Plant response rating, Foxtail, Giant",[5]; [16],20
same,"Plant response rating, Foxtail, Giant",[5]; [17],20
same,"Plant response rating, Foxtail, Giant",[5]; [18],20
same,"Foxtail, Giant plant response rating",[5]; [19],40
same,"Plant response rating, Pigweed",[6]; [16],0
same,"Plant response rating, Pigweed",[6]; [18],0
same,Pigweed plant response rating,[6]; [19],0
same,"Plant response rating, Wheat",[7]; [20],0
same,"Plant response rating, Corn",[8]; [21],0
same,"Plant response rating, Corn",[8]; [22],0
same,"Plant response rating, Blackgrass",[9]; [21],0
same,"Plant response rating, Blackgrass",[9]; [22],0
same,"Plant response rating, Galium",[10]; [20],0
